Laboratory results taken from article PMC5218480 (PLoS ONE, 2017).

Tested on: MV-4-11 cells
Assay: Gene expression microarray analysis (Affymetrix PrimeView) and GSEA
Type: cell-based, human
Set-up: RFU PODN (11730768_x_at) / Fold change /veh PODN (11730768_x_at) / RFU LINC00158 (11744669_a_at) / Fold change /veh LINC00158 (11744669_a_at) / RFU DUSP10 (11751237_a_at) / Fold change /veh DUSP10 (11751237_a_at) / RFU ID3 (11757404_x_at) / Fold change /veh ID3 (11757404_x_at) / RFU PLEKHG5 (11737974_s_at) / Fold change /veh PLEKHG5 (11737974_s_at) / RFU LRRC4B (11730491_at) / Fold change /veh LRRC4B (11730491_at) / RFU GIMAP4 (11747438_a_at) / Fold change /veh GIMAP4 (11747438_a_at) / RFU KRT8 (11758183_x_at) / Fold change /veh KRT8 (11758183_x_at) / RFU CNN1 (11734310_a_at) / Fold change /veh CNN1 (11734310_a_at) / RFU VPS37D (11726825_at) / Fold change /veh VPS37D (11726825_at) / RFU C10orf10 (11716522_x_at) / Fold change /veh C10orf10 (11716522_x_at) / RFU KIR2DL2 /// KIR2DL4 /// KIR2DL5A /// KIR2DL5B /// KIR2DS1 /// KIR2DS2 /// KIR2DS3 /// KIR2DS4 /// KIR3DL3 /// KIR3DL3 /// KIR3DS1 (11738374_at) / Fold change /veh KIR2DL2 /// KIR2DL4 /// KIR2DL5A /// KIR2DL5B /// KIR2DS1 /// KIR2DS2 /// KIR2DS3 /// KIR2DS4 /// KIR3DL3 /// KIR3DL3 /// KIR3DS1 (11738374_at) / RFU C1QL1 (11718748_at) / Fold change /veh C1QL1 (11718748_at) / RFU TMPRSS4 (11747572_a_at) / Fold change /veh TMPRSS4 (11747572_a_at) / RFU HAMP (11756126_x_at) / Fold change /veh HAMP (11756126_x_at) / RFU RNFT2 (11725882_a_at) / Fold change /veh RNFT2 (11725882_a_at) / RFU NR4A2 (11747474_a_at) / Fold change /veh NR4A2 (11747474_a_at) / RFU ABCC12 (11746883_a_at) / Fold change /veh ABCC12 (11746883_a_at) / RFU TMEM136 (11760407_x_at) / Fold change /veh TMEM136 (11760407_x_at) / RFU CLDN22 /// WWC2 (11732394_at) / Fold change /veh CLDN22 /// WWC2 (11732394_at) / RFU HLA-DPB1 (11760878_x_at) / Fold change /veh HLA-DPB1 (11760878_x_at) / RFU SPINT1 (11716480_a_at) / Fold change /veh SPINT1 (11716480_a_at) / RFU GAP43 (11754022_s_at) / Fold change /veh GAP43 (11754022_s_at) / RFU A4GNT (11735810_at) / Fold change /veh A4GNT (11735810_at) / RFU PRB3 (11715151_x_at) / Fold change /veh PRB3 (11715151_x_at) / RFU TUBB4B (11761932_at) / Fold change /veh TUBB4B (11761932_at) / RFU CAPN14 (11732068_a_at) / Fold change /veh CAPN14 (11732068_a_at) / RFU TMCC2 (11721928_a_at) / Fold change /veh TMCC2 (11721928_a_at) / RFU IRGQ (11745062_a_at) / Fold change /veh IRGQ (11745062_a_at) / RFU FAM174B (11720279_a_at) / Fold change /veh FAM174B (11720279_a_at) / RFU TMPRSS4 (11748680_a_at) / Fold change /veh TMPRSS4 (11748680_a_at) / RFU FAM212B (11763350_a_at) / Fold change /veh FAM212B (11763350_a_at) / RFU PLEKHG5 (11743358_a_at) / Fold change /veh PLEKHG5 (11743358_a_at) / RFU ZSCAN30 (11745921_a_at) / Fold change /veh ZSCAN30 (11745921_a_at) / RFU CMKLR1 (11741424_a_at) / Fold change /veh CMKLR1 (11741424_a_at) / RFU LOC101060620 /// MAPK8IP1 (11723275_at) / Fold change /veh LOC101060620 /// MAPK8IP1 (11723275_at) / RFU SPTSSB (11747773_x_at) / Fold change /veh SPTSSB (11747773_x_at) / RFU PRSS12 (11739890_at) / Fold change /veh PRSS12 (11739890_at) / RFU BIN1 (11741810_x_at) / Fold change /veh BIN1 (11741810_x_at) / RFU WNT11 (11732464_a_at) / Fold change /veh WNT11 (11732464_a_at) / RFU C10orf10 (11716521_a_at) / Fold change /veh C10orf10 (11716521_a_at) / RFU C5orf56 (11738089_at) / Fold change /veh C5orf56 (11738089_at) / RFU CYB561 (11721691_x_at) / Fold change /veh CYB561 (11721691_x_at) / RFU ANKRD19P (11752326_a_at) / Fold change /veh ANKRD19P (11752326_a_at) / RFU OR2T12 /// OR2T33 /// OR2T8 (11738714_s_at) / Fold change /veh OR2T12 /// OR2T33 /// OR2T8 (11738714_s_at) / RFU VCAN (11748164_a_at) / Fold change /veh VCAN (11748164_a_at) / RFU JSRP1 (11732532_at) / Fold change /veh JSRP1 (11732532_at) / RFU KRTAP10-11 (11738290_x_at) / Fold change /veh KRTAP10-11 (11738290_x_at) / RFU MYO3A (11730013_a_at) / Fold change /veh MYO3A (11730013_a_at) / RFU EBF3 (11725865_a_at) / Fold change /veh EBF3 (11725865_a_at) / RFU CAMK2N1 (11719241_x_at) / Fold change /veh CAMK2N1 (11719241_x_at) / RFU C5orf56 (11738088_a_at) / Fold change /veh C5orf56 (11738088_a_at) / RFU OLFML3 (11715873_a_at) / Fold change /veh OLFML3 (11715873_a_at) / RFU LOC100653217 /// NTM (11731650_a_at) / Fold change /veh LOC100653217 /// NTM (11731650_a_at) / RFU MAPK11 (11762145_a_at) / Fold change /veh MAPK11 (11762145_a_at) / RFU FIZ1 (11724087_x_at) / Fold change /veh FIZ1 (11724087_x_at) / RFU OASL (11726364_x_at) / Fold change /veh OASL (11726364_x_at) / RFU SOX15 (11748057_x_at) / Fold change /veh SOX15 (11748057_x_at) / RFU CD79A (11719716_a_at) / Fold change /veh CD79A (11719716_a_at) / RFU HIST1H1D (11736915_at) / Fold change /veh HIST1H1D (11736915_at) / RFU CASKIN2 (11723855_a_at) / Fold change /veh CASKIN2 (11723855_a_at) / RFU LOC730098 (11760151_x_at) / Fold change /veh LOC730098 (11760151_x_at) / RFU OR4N2 (11742367_at) / Fold change /veh OR4N2 (11742367_at) / RFU PRRT2 (11749266_a_at) / Fold change /veh PRRT2 (11749266_a_at) / RFU SNX32 (11753110_a_at) / Fold change /veh SNX32 (11753110_a_at) / RFU CDHR5 (11726645_a_at) / Fold change /veh CDHR5 (11726645_a_at) / RFU RCAN1 (11760418_a_at) / Fold change /veh RCAN1 (11760418_a_at) / RFU FAM167A (11723789_a_at) / Fold change /veh FAM167A (11723789_a_at) / RFU FAM26E (11764081_at) / Fold change /veh FAM26E (11764081_at) / RFU ISYNA1 (11749810_s_at) / Fold change /veh ISYNA1 (11749810_s_at) / RFU ACY1 (11761880_at) / Fold change /veh ACY1 (11761880_at) / RFU 11764098_at / Fold change /veh 11764098_at / RFU SAMD14 (11745864_x_at) / Fold change /veh SAMD14 (11745864_x_at) / RFU NPB (11741838_a_at) / Fold change /veh NPB (11741838_a_at) / RFU TMPRSS6 (11731388_a_at) / Fold change /veh TMPRSS6 (11731388_a_at) / RFU KRTAP10-2 (11738614_at) / Fold change /veh KRTAP10-2 (11738614_at) / RFU ARHGAP8 /// PRR5-ARHGAP8 (11727945_x_at) / Fold change /veh ARHGAP8 /// PRR5-ARHGAP8 (11727945_x_at) / RFU KRTAP5-7 /// NADSYN1 (11734609_at) / Fold change /veh KRTAP5-7 /// NADSYN1 (11734609_at) / RFU RASL12 (11751679_a_at) / Fold change /veh RASL12 (11751679_a_at) / RFU CDKN2B (11736163_a_at) / Fold change /veh CDKN2B (11736163_a_at) / RFU PRF1 (11729649_at) / Fold change /veh PRF1 (11729649_at) / RFU, ZNF638 /// ZNF638-IT1 / Fold change vs veh, ZNF638 /// ZNF638-IT1 / RFU, PANK3 / Fold change vs veh, PANK3 / RFU, SH3YL1 / Fold change vs veh, SH3YL1 / RFU, ZEB2 / Fold change vs veh, ZEB2 / RFU, NRIP1 / Fold change vs veh, NRIP1 / RFU, PTTG1IP / Fold change vs veh, PTTG1IP / RFU, CAPN2 / Fold change vs veh, CAPN2 / RFU, MED14 / Fold change vs veh, MED14 / RFU, SNORA58 / Fold change vs veh, SNORA58 / RFU, C1orf63 / Fold change vs veh, C1orf63 / RFU, LRRFIP1 / Fold change vs veh, LRRFIP1 / RFU, NDUFAF7 / Fold change vs veh, NDUFAF7 / RFU, SLC12A2 / Fold change vs veh, SLC12A2 / RFU, IBTK / Fold change vs veh, IBTK / RFU, ESF1 / Fold change vs veh, ESF1 / Fold change vs veh, TMEM50B / RFU, TAOK1 / Fold change vs veh, TAOK1 / RFU, ACBD3 / Fold change vs veh, ACBD3 / RFU, TMA16 / Fold change vs veh, TMA16 / RFU, RWDD3 / Fold change vs veh, RWDD3 / RFU, BCAT1 / Fold change vs veh, BCAT1 / RFU, EDEM3 / Fold change vs veh, EDEM3 / RFU, TMEM33 / Fold change vs veh, TMEM33 / RFU, WDR75 / Fold change vs veh, WDR75 / RFU, AHCTF1 / Fold change vs veh, AHCTF1 / RFU, TFRC / Fold change vs veh, TFRC / RFU, ZDHHC17 / Fold change vs veh, ZDHHC17 / RFU, NOM1 / Fold change vs veh, NOM1 / RFU, ARL8B / Fold change vs veh, ARL8B / RFU, ZBTB11 / Fold change vs veh, ZBTB11 / RFU, TAMM41 / Fold change vs veh, TAMM41 / RFU, KIAA1704 /// LOC100996395 / Fold change vs veh, KIAA1704 /// LOC100996395 / RFU, ING1 / Fold change vs veh, ING1 / RFU, TRMT61B / Fold change vs veh, TRMT61B / RFU, FUBP3 / Fold change vs veh, FUBP3 / RFU, TP53 / Fold change vs veh, TP53 / RFU, TNKS2 / Fold change vs veh, TNKS2 / RFU, ZFP14 / Fold change vs veh, ZFP14 / RFU, ACTR2 / Fold change vs veh, ACTR2 / RFU, PPP3R1 / Fold change vs veh, PPP3R1 / RFU, PIK3R1 / Fold change vs veh, PIK3R1 / RFU, HNRNPA1 / Fold change vs veh, HNRNPA1 / RFU, RNF170 / Fold change vs veh, RNF170 / RFU, ZNF28 / Fold change vs veh, ZNF28 / RFU, RNGTT / Fold change vs veh, RNGTT / RFU, OGT / Fold change vs veh, OGT / RFU, BRD1 / Fold change vs veh, BRD1 / RFU, MARS / Fold change vs veh, MARS / RFU, ZNF655 / Fold change vs veh, ZNF655 / RFU, FAHD1 / Fold change vs veh, FAHD1 / RFU, BDP1 / Fold change vs veh, BDP1 / RFU, LRRCC1 / Fold change vs veh, LRRCC1 / RFU, ARID1A / Fold change vs veh, ARID1A / RFU, ZNF146 / Fold change vs veh, ZNF146 / RFU, ZNF330 / Fold change vs veh, ZNF330 / RFU, GPN3 / Fold change vs veh, GPN3 / RFU, C9orf123 / Fold change vs veh, C9orf123 / RFU, N4BP2L2 / Fold change vs veh, N4BP2L2 / RFU, ARFIP1 / Fold change vs veh, ARFIP1 / RFU, FAM179B / Fold change vs veh, FAM179B / RFU, BCL10 / Fold change vs veh, BCL10 / RFU, UHRF1BP1L / Fold change vs veh, UHRF1BP1L / RFU, BET1 / Fold change vs veh, BET1 / RFU, CNOT2 / Fold change vs veh, CNOT2 / RFU, ZNF268 / Fold change vs veh, ZNF268 / Fold change vs veh, ZNF507 / RFU, DGCR2 / Fold change vs veh, DGCR2 / RFU, WDSUB1 / Fold change vs veh, WDSUB1 / Fold change vs veh, HSP90B1 /// MIR3652 / RFU, ADSS / Fold change vs veh, ADSS / RFU, GK / Fold change vs veh, GK / RFU, ZNF148 / Fold change vs veh, ZNF148 / RFU, TAF9 / Fold change vs veh, TAF9 / RFU, SLC1A5 / Fold change vs veh, SLC1A5 / RFU, SLMO2 / Fold change vs veh, SLMO2 / RFU, ABCC4 / Fold change vs veh, ABCC4 / RFU, LOC101060439 /// RAP1B / Fold change vs veh, LOC101060439 /// RAP1B / RFU, RFX7 / Fold change vs veh, RFX7 / RFU, GTPBP10 / Fold change vs veh, GTPBP10 / RFU, CNEP1R1 / Fold change vs veh, CNEP1R1 / RFU, BIVM-ERCC5 /// ERCC5 / Fold change vs veh, BIVM-ERCC5 /// ERCC5 / RFU, ILF3 / Fold change vs veh, ILF3 / RFU 11762660_at / Fold change /veh 11762660_at / RFU VCAN (11757783_s_at) / Fold change /veh VCAN (11757783_s_at) / RFU DDX43 (11728927_at) / Fold change /veh DDX43 (11728927_at) / RFU KRT8 (11758188_x_at) / Fold change /veh KRT8 (11758188_x_at) / RFU NKD1 (11759106_at) / Fold change /veh NKD1 (11759106_at) / RFU SRD5A1 (11742802_a_at) / Fold change /veh SRD5A1 (11742802_a_at) / RFU TPSAB1 /// TPSB2 (11721975_s_at) / Fold change /veh TPSAB1 /// TPSB2 (11721975_s_at) / RFU GSTM3 (11746129_a_at) / Fold change /veh GSTM3 (11746129_a_at) / RFU IL23R (11737362_x_at) / Fold change /veh IL23R (11737362_x_at) / RFU TMEM51 (11727254_a_at) / Fold change /veh TMEM51 (11727254_a_at) / RFU PIWIL2 (11732686_x_at) / Fold change /veh PIWIL2 (11732686_x_at) / RFU ORM1 (11744905_x_at) / Fold change /veh ORM1 (11744905_x_at) / RFU CCDC152 (11743942_at) / Fold change /veh CCDC152 (11743942_at) / RFU ECM1 (11717891_a_at) / Fold change /veh ECM1 (11717891_a_at) / RFU IL23R (11748794_a_at) / Fold change /veh IL23R (11748794_a_at) / RFU TNFAIP8L3 (11732012_x_at) / Fold change /veh TNFAIP8L3 (11732012_x_at) / RFU MBOAT4 (11741988_at) / Fold change /veh MBOAT4 (11741988_at) / RFU 11764193_at / Fold change /veh 11764193_at / RFU TMEM53 (11763286_at) / Fold change /veh TMEM53 (11763286_at) / RFU MAGEB2 (11727129_at) / Fold change /veh MAGEB2 (11727129_at) / RFU TMEM200A (11744735_a_at) / Fold change /veh TMEM200A (11744735_a_at) / RFU CCDC152 (11751479_a_at) / Fold change /veh CCDC152 (11751479_a_at) / RFU FAM211A (11726209_a_at) / Fold change /veh FAM211A (11726209_a_at) / RFU RGS16 (11746705_a_at) / Fold change /veh RGS16 (11746705_a_at) / RFU VCAN (11755009_s_at) / Fold change /veh VCAN (11755009_s_at) / RFU RHOB (11743442_s_at) / Fold change /veh RHOB (11743442_s_at) / RFU RGS16 (11720943_a_at) / Fold change /veh RGS16 (11720943_a_at) / RFU RGS16 (11720944_at) / Fold change /veh RGS16 (11720944_at) / RFU, VPS4B / Fold change vs veh, VPS4B / RFU, CREB1 / Fold change vs veh, CREB1 / RFU, DNAJC13 / Fold change vs veh, DNAJC13 / RFU, GNAQ / Fold change vs veh, GNAQ / RFU, CDK5R1 / Fold change vs veh, CDK5R1 / RFU, ZRANB3 / Fold change vs veh, ZRANB3 / RFU, CUL4A / Fold change vs veh, CUL4A / RFU, CCNY / Fold change vs veh, CCNY / RFU, UFL1 / Fold change vs veh, UFL1 / RFU, COG3 / Fold change vs veh, COG3 / RFU, DIAPH2 / Fold change vs veh, DIAPH2 / RFU, SKA2 / Fold change vs veh, SKA2 / RFU, AFF3 / Fold change vs veh, AFF3 / RFU, LMF1 / Fold change vs veh, LMF1 / RFU, IPO11 / Fold change vs veh, IPO11 / RFU, DFFB / Fold change vs veh, DFFB / RFU, FOXP1 / Fold change vs veh, FOXP1 / RFU, CARD8 / Fold change vs veh, CARD8 / RFU, STRN3 / Fold change vs veh, STRN3 / RFU, ADK / Fold change vs veh, ADK / RFU, RASSF2 / Fold change vs veh, RASSF2 / RFU, WIPF1 / Fold change vs veh, WIPF1 / RFU, LARP1B / Fold change vs veh, LARP1B / RFU, RASA1 / Fold change vs veh, RASA1 / RFU, RB1 / Fold change vs veh, RB1 / RFU, PPFIA1 / Fold change vs veh, PPFIA1 / RFU, MAT2A / Fold change vs veh, MAT2A / RFU, CCT5 / Fold change vs veh, CCT5 / RFU, WDR92 / Fold change vs veh, WDR92 / RFU, CUX1 / Fold change vs veh, CUX1 / RFU, TTC7A / Fold change vs veh, TTC7A / RFU, TMEM135 / Fold change vs veh, TMEM135 / RFU, DEPTOR / Fold change vs veh, DEPTOR / RFU, CPM / Fold change vs veh, CPM / RFU, DNAJB6 / Fold change vs veh, DNAJB6 / RFU, CACNA2D3 / Fold change vs veh, CACNA2D3 / RFU, DTX4 / Fold change vs veh, DTX4 / RFU, TFCP2 / Fold change vs veh, TFCP2 / RFU, GMCL1 /// GMCL1P1 / Fold change vs veh, GMCL1 /// GMCL1P1 / RFU, AEBP2 / Fold change vs veh, AEBP2 / RFU, SNHG1 /// SNORD22 /// SNORD25 /// SNORD26 /// SNORD27 /// SNORD28 /// SNORD29 /// SNORD31 / Fold change vs veh, SNHG1 /// SNORD22 /// SNORD25 /// SNORD26 /// SNORD27 /// SNORD28 /// SNORD29 /// SNORD31 / Fold change (Aza/veh), C12orf56 (ProbeSet 11735607_a_at) / Fold change (ACY-1035/veh), C12orf56 (ProbeSet 11735607_a_at) / Fold change (Aza/veh), FGFR1OP (ProbeSet 11751329_s_at) / Fold change (ACY-1035/veh), FGFR1OP (ProbeSet 11751329_s_at) / Fold change (Aza/veh), VPS36 (ProbeSet 11739960_a_at) / Fold change (ACY-1035/veh), VPS36 (ProbeSet 11739960_a_at) / RFU SYPL1 (11715823_x_at) / Fold change /veh SYPL1 (11715823_x_at) / RFU IGFBP7 (11715501_s_at) / Fold change /veh IGFBP7 (11715501_s_at) / RFU REEP3 (11722064_at) / Fold change /veh REEP3 (11722064_at) / RFU IGLL1 (11728026_x_at) / Fold change /veh IGLL1 (11728026_x_at): dose or concentration left out as unconfirmed
Details: MV-4-11 cells, 48 hours

Nc1ncn([C@@H]2O[C@H](CO)[C@@H](O)[C@H]2O)c(=O)n1 [azacitidine]
RFU A4GNT (11735810_at): 14.85 RFU
